Experimental data taken from ChEMBL document CHEMBL1140860, “Synthesis and evaluation of dihydroartemisinin and dihydroartemisitene acetal dimers showing anticancer and antiprotozoal activity” (Bioorg Med Chem, 2009).

Experiments:
CCRF-CEM = test: Growth inhibition of human CCRF-CEM cells after 48 hrs by sulforhodamine B assay; assay type: functional
A549 = test: Growth inhibition of human A549 cells after 48 hrs by sulforhodamine B assay; assay type: functional; conditions: A549, 48 h
SF-268 = test: Growth inhibition of human SF268 cells after 48 hrs by sulforhodamine B assay; assay type: functional; conditions: SF-268, 48 h
IGROV-1 = test: Growth inhibition of human IGROV1 cells after 48 hrs by sulforhodamine B assay; assay type: functional; conditions: IGROV-1, 48 h
[1] = Growth inhibition of human Hs 578T cells after 48 hrs by sulforhodamine B assay; assay type: functional
COLO 205 = test: Growth inhibition of human COLO205 cells after 48 hrs by sulforhodamine B assay; assay type: functional; conditions: COLO 205, 48 h
SK-MEL-2 = test: Growth inhibition of human SK-MEL-2 cells after 48 hrs by sulforhodamine B assay; assay type: functional; conditions: SK-MEL-2, 48 h
RXF 393 = test: Growth inhibition of human RXF393 cells after 48 hrs by sulforhodamine B assay; assay type: functional; conditions: RXF 393, 48 h
OVCAR-4 = test: Growth inhibition of human OVCAR4 cells after 48 hrs by sulforhodamine B assay; assay type: functional; conditions: OVCAR-4, 48 h
HCC 2998 = test: Growth inhibition of human HCC2998 cells after 48 hrs by sulforhodamine B assay; assay type: functional; conditions: HCC 2998, 48 h
UO-31 = test: Growth inhibition of human UO31 cells after 48 hrs by sulforhodamine B assay; assay type: functional; conditions: UO-31, 48 h
HL-60 = test: Growth inhibition of human HL-60(TB) cells after 48 hrs by sulforhodamine B assay; assay type: functional; conditions: HL-60, 48 h
Plasmodium falciparum = test: Antimalarial activity after 72 hrs against chloroquine-resistant Plasmodium falciparum W2 infected erythrocytes by LDH assay; assay type: functional, organism-based; conditions: W2, 72 h
EKVX = test: Growth inhibition of human EKVX cells after 48 hrs by sulforhodamine B assay; assay type: functional
SK-MEL-28 = test: Growth inhibition of human SK-MEL-28 cells after 48 hrs by sulforhodamine B assay; assay type: functional; conditions: SK-MEL-28, 48 h
SW-620 = test: Growth inhibition of human SW620 cells after 48 hrs by sulforhodamine B assay; assay type: functional; conditions: SW-620, 48 h
CAKI-1 = test: Growth inhibition of human Caki1 cells after 48 hrs by sulforhodamine B assay; assay type: functional; conditions: CAKI-1, 48 h
OVCAR-8 = test: Growth inhibition of human OVCAR8 cells after 48 hrs by sulforhodamine B assay; assay type: functional; conditions: OVCAR-8, 48 h
NCI-H23 = test: Growth inhibition of human NCI-H23 cells after 48 hrs by sulforhodamine B assay; assay type: functional; conditions: NCI-H23, 48 h
NCI-H460 = test: Growth inhibition of human NCI-H460 cells after 48 hrs by sulforhodamine B assay; assay type: functional; conditions: NCI-H460, 48 h
HCT-15 = test: Growth inhibition of human HCT15 cells after 48 hrs by sulforhodamine B assay; assay type: functional; conditions: HCT-15, 48 h
HOP-62 = test: Growth inhibition of human HOP62 cells after 48 hrs by sulforhodamine B assay; assay type: functional; conditions: HOP-62, 48 h
BT-549 = test: Growth inhibition of human BT549 cells after 48 hrs by sulforhodamine B assay; assay type: functional; conditions: BT-549, 48 h
OVCAR-3 = test: Growth inhibition of human OVCAR-3 cells after 48 hrs by sulforhodamine B assay; assay type: functional; conditions: OVCAR-3, 48 h
SR = test: Growth inhibition of human SR cells after 48 hrs by sulforhodamine B assay; assay type: functional
U-251 = test: Growth inhibition of human U251 cells after 48 hrs by sulforhodamine B assay; assay type: functional; conditions: U-251, 48 h
LOX IMVI = test: Growth inhibition of human LOXIMVI cells after 48 hrs by sulforhodamine B assay; assay type: functional
NCI/ADR-RES = test: Growth inhibition of human NCI/ADR-RES cells after 48 hrs by sulforhodamine B assay; assay type: functional
ACHN = test: Growth inhibition of human ACHN cells after 48 hrs by sulforhodamine B assay; assay type: functional
HOP-92 = test: Growth inhibition of human HOP92 cells after 48 hrs by sulforhodamine B assay; assay type: functional; conditions: HOP-92, 48 h
TK-10 = test: Growth inhibition of human TK10 cells after 48 hrs by sulforhodamine B assay; assay type: functional; conditions: TK-10, 48 h
A498 = test: Growth inhibition of human A498 cells after 48 hrs by sulforhodamine B assay; assay type: functional; conditions: A498, 48 h
SNB-75 = test: Growth inhibition of human SNB75 cells after 48 hrs by sulforhodamine B assay; assay type: functional; conditions: SNB-75, 48 h
SK-MEL-5 = test: Growth inhibition of human SK-MEL-5 cells after 48 hrs by sulforhodamine B assay; assay type: functional; conditions: SK-MEL-5, 48 h
MCF7 = test: Growth inhibition of human MCF7 cells after 48 hrs by sulforhodamine B assay; assay type: functional; conditions: MCF7, 48 h
MOLT-4 = test: Growth inhibition of human MOLT4 cells after 48 hrs by sulforhodamine B assay; assay type: functional; conditions: MOLT-4, 48 h
MDA-MB-435 = test: Growth inhibition of human MDA-MB-435 cells after 48 hrs by sulforhodamine B assay; assay type: functional; conditions: MDA-MB-435, 48 h
[2] = Selectivity index, ratio of TC50 for african green monkey (Cercopithecus aethiops) Vero cells to IC50 for chloroquine-resistant Plasmodium falciparum W2; assay type: toxicity, cell-based
786-0 = test: Growth inhibition of human 786-0 cells after 48 hrs by sulforhodamine B assay; assay type: functional; conditions: 786-0, 48 h
SNB-19 = test: Growth inhibition of human SNB19 cells after 48 hrs by sulforhodamine B assay; assay type: functional; conditions: SNB-19, 48 h
NCI-H522 = test: Growth inhibition of human NCI-H522 cells after 48 hrs by sulforhodamine B assay; assay type: functional; conditions: NCI-H522, 48 h
SN12C = test: Growth inhibition of human SN12C cells after 48 hrs by sulforhodamine B assay; assay type: functional
NCI-H322M = test: Growth inhibition of human NCI-H322M cells after 48 hrs by sulforhodamine B assay; assay type: functional
HT-29 = test: Growth inhibition of human HT-29 cells after 48 hrs by sulforhodamine B assay; assay type: functional; conditions: HT-29, 48 h
HCT-116 = test: Growth inhibition of human HCT116 cells after 48 hrs by sulforhodamine B assay; assay type: functional; conditions: HCT-116, 48 h
Malme-3M = test: Growth inhibition of human MALME-3M cells after 48 hrs by sulforhodamine B assay; assay type: functional
MDA-MB-231 = test: Growth inhibition of human MDA-MB-231 cells after 48 hrs by sulforhodamine B assay; assay type: functional; conditions: MDA-MB-231, 48 h
KM12 = test: Growth inhibition of human KM12 cells after 48 hrs by sulforhodamine B assay; assay type: functional; conditions: KM12, 48 h
K562 = test: Growth inhibition of human K562 cells after 48 hrs by sulforhodamine B assay; assay type: functional; conditions: K562, 48 h
SF-539 = test: Growth inhibition of human SF539 cells after 48 hrs by sulforhodamine B assay; assay type: functional; conditions: SF-539, 48 h

Work on `COCC(CO[C@H]1O[C@@H]2O[C@@]3(C)CC[C@H]4[C@H](C)CC[C@@H]([C@H]1C)[C@@]24OO3)O[C@H]1O[C@@H]2O[C@@]3(C)CC[C@H]4[C@H](C)CC[C@@H]([C@H]1C)[C@@]24OO3` (stereo not given in full) yielded a GI50 (CCRF-CEM) of 19 nM, a GI50 (A549) of 61 nM and a GI50 (SF-268) of 6290 nM. It also gave a GI50 (IGROV-1) of 4200 nM, a GI50 [1] of 74 nM and a GI50 (COLO 205) of 11 nM. The GI50 (SK-MEL-2) was 122 nM, the GI50 (RXF 393) was 2970 nM and the GI50 (OVCAR-4) was 5690 nM. It also gave a GI50 (HCC 2998) of 108 nM, a GI50 (UO-31) of 125 nM and a GI50 (HL-60) of 28 nM. For the same compound, the IC50 (Plasmodium falciparum) was 4700 nM, the GI50 (EKVX) was 689 nM and the GI50 (SK-MEL-28) was 5750 nM. The GI50 (SW-620) was 15 nM, the GI50 (CAKI-1) was 192 nM and the GI50 (OVCAR-8) was 130 nM. It also gave a GI50 (NCI-H23) of 81 nM, a GI50 (NCI-H460) of 81 nM and a GI50 (HCT-15) of 17 nM. The GI50 (HOP-62) was 5620 nM, the GI50 (BT-549) was 7520 nM and the GI50 (OVCAR-3) was 65 nM. It also gave a GI50 (SR) of 15 nM, a GI50 (U-251) of 21 nM and a GI50 (LOX IMVI) of 23 nM. The GI50 (NCI/ADR-RES) was 533 nM, the GI50 (ACHN) was 189 nM and the GI50 (HOP-92) was 71 nM. For the same compound, the GI50 (TK-10) was 58 nM, the GI50 (A498) was 148 nM and the GI50 (SNB-75) was 22600 nM. The GI50 (SK-MEL-5) was 496 nM, the GI50 (MCF7) was 150 nM and the GI50 (MOLT-4) was 27 nM. The GI50 (MDA-MB-435) was 443 nM, the selectivity ratio [2] was greater than 159 and the GI50 (786-0) was 185 nM. For the same compound, the GI50 (SNB-19) was 249 nM, the GI50 (NCI-H522) was 58 nM and the GI50 (SN12C) was 153 nM. It also gave a GI50 (NCI-H322M) of 5960 nM, a GI50 (HT-29) of 19 nM and a GI50 (HCT-116) of 12 nM. The GI50 (Malme-3M) was 8130 nM, the GI50 (MDA-MB-231) was 13100 nM and the GI50 (KM12) was 18 nM. It also gave a GI50 (K562) of 27 nM and a GI50 (SF-539) of 4040 nM.

`C[C@H]1[C@@H](OCC(=O)CO[C@H]2O[C@@H]3O[C@@]4(C)CC[C@H]5[C@H](C)CC[C@@H]([C@H]2C)[C@@]35OO4)O[C@@H]2O[C@@]3(C)CC[C@H]4[C@H](C)CC[C@@H]1[C@@]24OO3` showed a GI50 (CCRF-CEM) of less than 10 nM, a GI50 (A549) of less than 10 nM and a GI50 (SF-268) of 2030 nM. For the same compound, the GI50 (IGROV-1) was 1740 nM, the GI50 [1] was 16200 nM and the GI50 (COLO 205) was less than 10 nM. The GI50 (SK-MEL-2) was 31 nM, the GI50 (RXF 393) was 12600 nM and the GI50 (OVCAR-4) was 69 nM. It also gave a GI50 (HCC 2998) of less than 10 nM, a GI50 (UO-31) of less than 10 nM and a GI50 (HL-60) of less than 10 nM. The IC50 (Plasmodium falciparum) was 300 nM, the GI50 (EKVX) was 78 nM and the GI50 (SK-MEL-28) was 11700 nM. For the same compound, the GI50 (SW-620) was less than 10 nM, the GI50 (CAKI-1) was 77 nM and the GI50 (OVCAR-8) was less than 10 nM. The GI50 (NCI-H23) was less than 10 nM, the GI50 (NCI-H460) was less than 10 nM and the GI50 (HCT-15) was less than 10 nM. It also gave a GI50 (HOP-62) of 11900 nM, a GI50 (BT-549) of 290 nM and a GI50 (OVCAR-3) of less than 10 nM. It also gave a GI50 (SR) of less than 10 nM, a GI50 (U-251) of less than 10 nM and a GI50 (LOX IMVI) of less than 10 nM. The GI50 (NCI/ADR-RES) was 40 nM, the GI50 (ACHN) was 26 nM and the GI50 (HOP-92) was 21 nM. It also gave a GI50 (TK-10) of 278 nM, a GI50 (A498) of 15400 nM and a GI50 (SNB-75) of 15 nM. For the same compound, the GI50 (SK-MEL-5) was less than 10 nM, the GI50 (MCF7) was less than 10 nM and the GI50 (MOLT-4) was less than 10 nM. For the same compound, the GI50 (MDA-MB-435) was 17 nM, the selectivity ratio [2] was greater than 23800 and the GI50 (786-0) was 93 nM. For the same compound, the GI50 (SNB-19) was 13300 nM, the GI50 (NCI-H522) was 18 nM and the GI50 (SN12C) was less than 10 nM. For the same compound, the GI50 (NCI-H322M) was 8420 nM, the GI50 (HT-29) was less than 10 nM and the GI50 (HCT-116) was less than 10 nM. The GI50 (Malme-3M) was less than 10 nM, the GI50 (MDA-MB-231) was 3330 nM and the GI50 (KM12) was less than 10 nM. It also gave a GI50 (K562) of less than 10 nM and a GI50 (SF-539) of 10100 nM.
